{"source": "ChEMBL document CHEMBL4665903", "about": "“Novel Tricyclic Compounds for Treating Bacterial Infection” (ACS Med Chem Lett, 2020)", "assay_type_in_all_cases": "functional, organism-based", "key": {"Acinetobacter baumannii": {"test_system": "Acinetobacter baumannii", "experiment": "Antibacterial activity against Acinetobacter baumannii ATCC 17978 assessed as bacterial growth inhibition and measured every 20 mins for 16 hrs"}, "Staphylococcus aureus": {"test_system": "Staphylococcus aureus", "experiment": "Antibacterial activity against Staphylococcus aureus ATCC 29213 assessed as bacterial growth inhibition and measured every 20 mins for 16 hrs"}, "Klebsiella pneumoniae": {"test_system": "Klebsiella pneumoniae", "experiment": "Antibacterial activity against Klebsiella pneumoniae ATCC 10031 assessed as bacterial growth inhibition and measured every 20 mins for 16 hrs"}}}
{"smiles": "CNc1cc(F)c(F)c2c1[nH]c1ncc(-c3cnc(OC)nc3)c(N3CC[C@@]4(C[C@@H]4N)C3)c12", "values": [{"measurement": "IC50", "setting": "Acinetobacter baumannii", "value": "< 98", "unit": "nM"}, {"measurement": "IC50", "setting": "Staphylococcus aureus", "value": 184, "unit": "nM"}, {"measurement": "IC50", "setting": "Klebsiella pneumoniae", "value": "< 98", "unit": "nM"}]}
{"smiles": "CCNc1cc(F)c(F)c2c1[nH]c1ncc(-c3cnc(OC)nc3)c(N3CCC[C@@H](CN)C3)c12", "values": [{"measurement": "IC50", "setting": "Acinetobacter baumannii", "value": "< 98", "unit": "nM"}, {"measurement": "IC50", "setting": "Staphylococcus aureus", "value": 394, "unit": "nM"}, {"measurement": "IC50", "setting": "Klebsiella pneumoniae", "value": "< 98", "unit": "nM"}]}
{"smiles": "CNc1cc(F)c(F)c2c1[nH]c1ncc(-c3cnc4ccnn4c3)c(N3CC[C@H]4CN(C)C[C@H]43)c12", "values": [{"measurement": "IC50", "setting": "Acinetobacter baumannii", "value": "< 98", "unit": "nM"}, {"measurement": "IC50", "setting": "Staphylococcus aureus", "value": 369, "unit": "nM"}, {"measurement": "IC50", "setting": "Klebsiella pneumoniae", "value": "< 98", "unit": "nM"}]}
{"smiles": "CNc1cc(F)c(F)c2c1[nH]c1ncc(-c3cncc(C#N)c3)c(N3CCCC(F)(CN)C3)c12", "note": "(stereo not drawn)", "values": [{"measurement": "IC50", "setting": "Acinetobacter baumannii", "value": "< 98", "unit": "nM"}, {"measurement": "IC50", "setting": "Staphylococcus aureus", "value": 477, "unit": "nM"}, {"measurement": "IC50", "setting": "Klebsiella pneumoniae", "value": "< 98", "unit": "nM"}]}
{"smiles": "CCNc1cc(F)cc2c1[nH]c1ncc(-c3cncc(C#N)c3)c(N3CCC(F)(CN)C3)c12", "note": "(stereo not drawn)", "values": [{"measurement": "IC50", "setting": "Acinetobacter baumannii", "value": "< 98", "unit": "nM"}, {"measurement": "IC50", "setting": "Staphylococcus aureus", "value": 312, "unit": "nM"}, {"measurement": "IC50", "setting": "Klebsiella pneumoniae", "value": "< 98", "unit": "nM"}]}
{"smiles": "CCNc1cc(F)cc2c1[nH]c1ncc(-c3cncc(C#N)c3)c(N3CC[C@@]4(C[C@H]4N)C3)c12", "values": [{"measurement": "IC50", "setting": "Acinetobacter baumannii", "value": "< 98", "unit": "nM"}, {"measurement": "IC50", "setting": "Staphylococcus aureus", "value": 863, "unit": "nM"}, {"measurement": "IC50", "setting": "Klebsiella pneumoniae", "value": "< 98", "unit": "nM"}]}
